According to PubChem BioAssay (NCI):
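The compound was tested at five concentrations on cells cultured in 96-well plates, with a 48-hour exposure period. The concentration for 50% growth inhibition is given as GI50. Definition used: TGI = concentration required for complete inhibition of growth.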

Legend:
Test in all cases: inhibition of tumour cell growth, NCI panel, 48 h
[1] = system: NCI-H460 lung
[2] = system: DU-145 prostate
[3] = system: UO-31 renal
[4] = system: T-47D breast
[5] = system: RXF 393 renal
[6] = system: COLO 205 colon
[7] = system: NCI/ADR-RES ovarian
[8] = system: HCC-2998 colon
[9] = system: SNB-75 CNS
[10] = system: NCI-H522 lung
[11] = system: KM12 colon
[12] = system: U251 CNS
[13] = system: A549 NSCLC
[14] = system: ACHN renal
[15] = system: HS 578T breast
[16] = system: SK-MEL-28 melanoma
[17] = system: SF-539 CNS
[18] = system: HOP-92 NSCLC
[19] = system: UACC-257 melanoma
[20] = system: MDA-MB-435
[21] = system: BT-549 breast
[22] = system: OVCAR-5 ovarian
[23] = system: SK-MEL-2 melanoma
[24] = system: SNB-19 CNS
[25] = system: MCF7 breast
[26] = system: NCI-H23 lung
[27] = system: EKVX NSCLC
[28] = system: UACC-62 melanoma
[29] = system: HT29 colon
[30] = system: OVCAR-4 ovarian
[31] = system: HCT-116 colon
[32] = system: 786-0 renal
[33] = system: CAKI-1 renal
[34] = system: HOP-62 NSCLC
[35] = system: RPMI-8226 leukemia
[36] = system: SK-OV-3 ovarian
[37] = system: LOX IMVI melanoma
[38] = system: SF-295 CNS
[39] = system: TK-10 renal
[40] = system: HCT-15 colon
[41] = system: A498 renal
[42] = system: MDA-MB-231 breast
[43] = system: HL-60(TB) leukemia
[44] = system: SN12C renal
[45] = system: SF-268 CNS
[46] = system: CCRF-CEM leukemia
[47] = system: MALME-3M melanoma
[48] = system: IGROV1 ovarian
[49] = system: SK-MEL-5 melanoma
[50] = system: OVCAR-8 ovarian
[51] = system: NCI-H226 lung
[52] = system: PC-3 prostate
[53] = system: OVCAR-3 ovarian
[54] = system: SW-620 colon
[55] = system: M14 melanoma
[56] = system: MOLT-4 leukemia

## FC(F)(F)c1cc(Nc2cccc(Oc3ccc(NC4=NCCN4)nc3)c2)ccc1Cl
[1]
  GI50: 1.98 µM
  TGI: 3.95 µM
[2]
  GI50: 2.09 µM
  TGI: 4.44 µM
[3]
  GI50: 2.19 µM
  TGI: 8.61 µM
[4]
  GI50: 2.79 µM
  TGI: 11.3 µM
[5]
  GI50: 2.05 µM
  TGI: 4.94 µM
[6]
  GI50: 1.87 µM
  TGI: 3.96 µM
[7]
  GI50: 2.05 µM
  TGI: 4.52 µM
[8]
  GI50: 1.98 µM
  TGI: 3.65 µM
[9]
  GI50: 1.96 µM
  TGI: 8.29 µM
[10]
  GI50: 1.93 µM
  TGI: 4.36 µM
[11]
  GI50: 2.02 µM
  TGI: 4.47 µM
[12]
  GI50: 2.09 µM
  TGI: 4.75 µM
[13]
  GI50: 2.35 µM
  TGI: 6.31 µM
[14]
  GI50: 2.91 µM
  TGI: 8.66 µM
[15]
  GI50: 1.98 µM
  TGI: 4.63 µM
[16]
  GI50: 1.94 µM
  TGI: 3.89 µM
[17]
  GI50: 2.07 µM
  TGI: 4.57 µM
[18]
  GI50: 1.42 µM
  TGI: 5.29 µM
[19]
  GI50: 3.09 µM
  TGI: 9.59 µM
[20]
  GI50: 1.66 µM
  TGI: 3.3 µM
[21]
  GI50: 3.91 µM
  TGI: 16.9 µM
[22]
  GI50: 2.49 µM
  TGI: 6.81 µM
[23]
  GI50: 2.62 µM
  TGI: 6.99 µM
[24]
  GI50: 2.74 µM
  TGI: 8.64 µM
[25]
  GI50: 1.74 µM
  TGI: 3.69 µM
[26]
  GI50: 2.53 µM
  TGI: 7.6 µM
[27]
  GI50: 2.07 µM
  TGI: 5.45 µM
[28]
  GI50: 2.59 µM
  TGI: 6.89 µM
[29]
  GI50: 2.05 µM
  TGI: 5.07 µM
[30]
  GI50: 2.75 µM
  TGI: 11 µM
[31]
  GI50: 1.73 µM
  TGI: 3.19 µM
[32]
  GI50: 1.76 µM
  TGI: 3.58 µM
[33]
  GI50: 2.76 µM
  TGI: 11.3 µM
[34]
  GI50: 2.22 µM
  TGI: 6.1 µM
[35]
  GI50: 2.03 µM
  TGI: 5.24 µM
[36]
  GI50: 14.8 µM
  TGI: 32 µM
[37]
  GI50: 1.74 µM
  TGI: 3.19 µM
[38]
  GI50: 1.73 µM
  TGI: 3.37 µM
[39]
  GI50: 3.97 µM
  TGI: 16.1 µM
[40]
  GI50: 1.66 µM
  TGI: 3.32 µM
[41]
  GI50: 2.31 µM
  TGI: 9.85 µM
[42]
  GI50: 2.18 µM
  TGI: 5.02 µM
[43]
  GI50: 2.11 µM
  TGI: 5.53 µM
[44]
  GI50: 1.87 µM
  TGI: 3.82 µM
[45]
  GI50: 4.14 µM
  TGI: 17.9 µM
[46]
  GI50: 2.8 µM
  TGI: 14.6 µM
[47]
  GI50: 2.81 µM
  TGI: 9.7 µM
[48]
  GI50: 1.83 µM
  TGI: 4.22 µM
[49]
  GI50: 1.8 µM
  TGI: 3.24 µM
[50]
  GI50: 2.49 µM
  TGI: 6.73 µM
[51]
  GI50: 2.06 µM
  TGI: 5.34 µM
[52]
  GI50: 1.92 µM
  TGI: 3.73 µM
[53]
  GI50: 2.5 µM
  TGI: 6.33 µM
[54]
  GI50: 1.76 µM
  TGI: 3.65 µM
[55]
  GI50: 1.73 µM
  TGI: 3.46 µM
[56]
  GI50: 3.2 µM
  TGI: 14.2 µM
